Data: patent EP0318620A1, “Herbicidal sulfonamides” (E.I. DU PONT DE NEMOURS AND COMPANY, priority 1987, dated 1989)

Columns and labels:
giant foxtail = assay: Test A greenhouse herbicide test, pre- and postemergence; assay type: in vivo, Setaria faberii; conditions: rated after sixteen days
Excerpt: (§1) Seeds of crabgrass (Digitaria spp.), barnyardgrass (Echinochloa crusgalli), cheatgrass (Bromus Secalinus), giant foxtail (Setaria faberii), wild oats (Avena fatua), velvetleaf (Abutilon theophrasti), morningglory (Ipomoea spp. , cocklebur (Xanthium pensylvanicum). sorghum, corn, barley, soybean, sugarbeet, cotton, rice, wheat and purple nutsedge (Cyperus rotundus) tubers were planted and treated preemergence with the test chemicals dissolved in a non-phytotoxic solvent. At the same time, these crop and weed species were treated with a soil/foliage application. At the time of treatment, the plants ranged in height from 2 to 18 cm. Treated plants and controls were maintained in a greenhouse for sixteen days, after which all species were compared to controls and visually rated for response to treatment. The ratings, summarized in Table A, are based on a numerical scale extending from 0 = no injury, to 10 = complete kill. The accompanying descriptive symbols have the following meanings: • B = burn; • C = chlorosis/necrosis; • D = defoliation; • E = emergence inhibition; • G = growth retardation; • H = formative effect; • U = unusual pigmentation; • X = axillary stimulation; • S = albinism; and • 6Y = abscised buds or flowers.

crabgrass = assay: Test B pan test in Sassafras sandy loam soil, pre- and postemergence; assay type: in vivo, Digitaria sanguinalis; conditions: scale 0 to 100
Excerpt: Three round pans (25 cm diameter by 12.5 cm deep) were filled with Sassafras sandy loam soil. One pan was planted with nutsedge (Cyperus rotundus) tubers, crabgrass (Digitaria sanguinalis), sicklepod (Cassia obtusifolia), jimsonweed (Datura stramonium), velvetleaf (Abutilon theophrasti), lambsquarters (Chenopodim album), rice (Oryza sativa) and teaweed (Sida spinosa). The second pot was planted with green foxtail (Setaria viridis), cocklebur (Xantium pensyivanicum), morningglory (lpomoea hederacea), cotton (Gossypium hirsutum), johnsongrass (Sorghum halepense), barnyardgrass (Echinochloa crusgalli), corn (Zea mays), soybean (Glycine max) and giant foxtail (Setaria faberi). The third pot was planted with wheat (Triticum aestivum), barley (Hordeum vulgare), wild buckwheat (Polgonum convolvulus L.), cheatgrass (Bromus secalinus L.), sugarbeet (Beta vulgaris), wild oats (Avena fatua), viola (Viola arvensis), blackgrass (Alopecurus myosuroides), and rape (Brassica napus). The plants were grown for approximately fourteen days, then sprayed postemergence with the chemicals dissolved in a non-phytotoxic solvent.
Three round pans (25 cm diameter by 12.5 cm deep) were filled with Sassafras sandy loam soil. One pan was planted with nutsedge tubers, crabgrass, sicklepod, jimsonweed, velvetleaf, lambsquarters, rice and teaweed. The second pot was planted with green foxtail, cocklebur, morningglory, cottom, johnsongrass, . barnyardgrass, corn, soybean and giant foxtail. The third pot was planted with wheat, barley, wild buckwheat, cheatgrass, sugarbeet, wild oat, viola, blackgrass and rape. The three pans were sprayed preemer gence with the chemicals dissolved in a non-phytotoxic solvent.
Treated plants and controls were maintained in the greenhouse for 24 days, then all rated plants were compared to controls and visually rated for plant response.
A dash (-) response means no test.

cheatgrass = assay: Test A greenhouse herbicide test, pre- and postemergence; assay type: in vivo, Bromus Secalinus; conditions: rated after sixteen days
Excerpt: as §1

For `CCOC(=O)c1c(CC#N)cccc1S(=O)(=O)NC(=O)Nc1nc(OC)cc(OC)n1` [Compound 3, 2-(cyanomethyl)-6 [[(4,6-dimethoxypyrimidin-2-yl)-aminocarbonyl]aminosulfonyl]benzoic acid, ethyl ester], the “GIANT FOXTAIL visual rating of response to treatment” value (shortened to “GIANT FOXTAIL visual rating”) (giant foxtail; POSTEMERGENCE, RATE 0.01 KG/HA) was 9C, the “GIANT FOXTAIL visual rating” value (giant foxtail; POSTEMERGENCE, RATE 0.05 KG/HA) was 10C and the “GIANT FOXTAIL visual rating” value (giant foxtail; PREEMERGENCE, RATE 0.01 KG/HA) was 5G. The CRABGRASS response rating (crabgrass; POSTEMERGENCE, RATE 0001 G/HA) was 0, the CRABGRASS response rating (crabgrass; POSTEMERGENCE, RATE 0004 G/HA) was 30 and the CRABGRASS response rating (crabgrass; POSTEMERGENCE, RATE 0016 G/HA) was 50. It also gave a CRABGRASS response rating (crabgrass; POSTEMERGENCE, RATE 0062 G/HA) of 70, a CRABGRASS response rating (crabgrass; PREEMERGENCE, RATE 0004 G/HA) of 0 and a CRABGRASS response rating (crabgrass; PREEMERGENCE, RATE 0016 G/HA) of 30. For the same compound, the CRABGRASS response rating (crabgrass; PREEMERGENCE, RATE 0062 G/HA) was 70, the “CHEATGRASS visual rating of response to treatment” value (shortened to “CHEATGRASS visual rating”) (cheatgrass; POSTEMERGENCE, RATE 0.01 KG/HA) was 6G and the “CHEATGRASS visual rating” value (cheatgrass; PREEMERGENCE, RATE 0.01 KG/HA) was 5G. For the same compound, the “CHEATGRASS visual rating” value (cheatgrass; PREEMERGENCE, RATE 0.05 KG/HA) was 8H.
